Like-named read-outs stand apart in the source and are kept apart here. Values belong to the compound of their own block, whether it stands above or below them.
Legend:
[1] = molecular target: PDGFRB (Homo sapiens, UniProt P09619); assay: biochemical; parameters: Eurofins DiscoverX kinase panel, competitive binding assay at 1 uM, percent of DMSO control; details: competitive binding, percent of DMSO control
How it was run: (§1)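 Competitive binding assay across a 96-kinase panel with KIF18A compounds at 1 µM; values given as percentage of control (POC), single experiment.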

[2] = molecular target: T1, TAOK2 (Homo sapiens, UniProt Q9UL54); assay: biochemical; parameters: Eurofins DiscoverX kinase panel, competitive binding assay at 1 uM, percent of DMSO control; details: competitive binding, percent of DMSO control
T1 sequence (Q9UL54 1-1235): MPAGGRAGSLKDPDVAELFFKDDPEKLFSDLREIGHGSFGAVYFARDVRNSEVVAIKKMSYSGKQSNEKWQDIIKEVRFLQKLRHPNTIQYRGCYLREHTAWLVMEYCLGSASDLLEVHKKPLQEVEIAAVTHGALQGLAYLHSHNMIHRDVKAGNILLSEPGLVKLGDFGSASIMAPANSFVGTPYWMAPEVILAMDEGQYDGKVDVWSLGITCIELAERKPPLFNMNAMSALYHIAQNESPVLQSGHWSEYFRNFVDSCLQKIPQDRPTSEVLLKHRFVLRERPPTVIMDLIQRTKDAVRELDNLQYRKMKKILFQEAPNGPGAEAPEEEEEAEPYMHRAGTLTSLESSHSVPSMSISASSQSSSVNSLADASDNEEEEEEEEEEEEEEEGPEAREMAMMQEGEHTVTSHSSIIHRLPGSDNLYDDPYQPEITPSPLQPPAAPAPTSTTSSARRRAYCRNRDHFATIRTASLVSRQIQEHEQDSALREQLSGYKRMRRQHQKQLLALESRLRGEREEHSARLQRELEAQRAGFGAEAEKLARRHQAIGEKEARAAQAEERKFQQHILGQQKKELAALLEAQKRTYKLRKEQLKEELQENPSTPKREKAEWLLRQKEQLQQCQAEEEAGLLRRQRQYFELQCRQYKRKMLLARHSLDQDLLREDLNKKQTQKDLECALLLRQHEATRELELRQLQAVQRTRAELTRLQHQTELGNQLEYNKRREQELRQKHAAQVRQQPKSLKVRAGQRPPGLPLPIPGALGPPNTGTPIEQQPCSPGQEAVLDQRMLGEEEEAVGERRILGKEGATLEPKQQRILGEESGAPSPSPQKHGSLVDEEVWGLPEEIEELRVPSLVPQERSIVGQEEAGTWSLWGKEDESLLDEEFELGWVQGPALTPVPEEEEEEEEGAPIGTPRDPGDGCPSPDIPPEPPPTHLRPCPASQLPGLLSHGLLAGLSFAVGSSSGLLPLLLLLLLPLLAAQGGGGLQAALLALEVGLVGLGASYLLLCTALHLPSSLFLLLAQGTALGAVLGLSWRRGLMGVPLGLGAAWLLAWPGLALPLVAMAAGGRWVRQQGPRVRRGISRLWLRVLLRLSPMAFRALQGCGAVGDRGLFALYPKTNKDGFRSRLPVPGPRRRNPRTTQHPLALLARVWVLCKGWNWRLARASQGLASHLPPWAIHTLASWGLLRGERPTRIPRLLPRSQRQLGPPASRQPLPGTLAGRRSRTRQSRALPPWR
How it was run: as §1

[3] = read-out: Kinome Profiling performed by Eurofins DiscoverX / AM-0277, 1.0 µM / POC
[4] = read-out: Kinome Profiling performed by Eurofins DiscoverX / AM-1882, 1.0 µM / POC
[5] = read-out: Kinome Profiling performed by Eurofins DiscoverX / AM-5308, 1.0 µM / POC

Sequence of PDGFRB (P09619 whole entry): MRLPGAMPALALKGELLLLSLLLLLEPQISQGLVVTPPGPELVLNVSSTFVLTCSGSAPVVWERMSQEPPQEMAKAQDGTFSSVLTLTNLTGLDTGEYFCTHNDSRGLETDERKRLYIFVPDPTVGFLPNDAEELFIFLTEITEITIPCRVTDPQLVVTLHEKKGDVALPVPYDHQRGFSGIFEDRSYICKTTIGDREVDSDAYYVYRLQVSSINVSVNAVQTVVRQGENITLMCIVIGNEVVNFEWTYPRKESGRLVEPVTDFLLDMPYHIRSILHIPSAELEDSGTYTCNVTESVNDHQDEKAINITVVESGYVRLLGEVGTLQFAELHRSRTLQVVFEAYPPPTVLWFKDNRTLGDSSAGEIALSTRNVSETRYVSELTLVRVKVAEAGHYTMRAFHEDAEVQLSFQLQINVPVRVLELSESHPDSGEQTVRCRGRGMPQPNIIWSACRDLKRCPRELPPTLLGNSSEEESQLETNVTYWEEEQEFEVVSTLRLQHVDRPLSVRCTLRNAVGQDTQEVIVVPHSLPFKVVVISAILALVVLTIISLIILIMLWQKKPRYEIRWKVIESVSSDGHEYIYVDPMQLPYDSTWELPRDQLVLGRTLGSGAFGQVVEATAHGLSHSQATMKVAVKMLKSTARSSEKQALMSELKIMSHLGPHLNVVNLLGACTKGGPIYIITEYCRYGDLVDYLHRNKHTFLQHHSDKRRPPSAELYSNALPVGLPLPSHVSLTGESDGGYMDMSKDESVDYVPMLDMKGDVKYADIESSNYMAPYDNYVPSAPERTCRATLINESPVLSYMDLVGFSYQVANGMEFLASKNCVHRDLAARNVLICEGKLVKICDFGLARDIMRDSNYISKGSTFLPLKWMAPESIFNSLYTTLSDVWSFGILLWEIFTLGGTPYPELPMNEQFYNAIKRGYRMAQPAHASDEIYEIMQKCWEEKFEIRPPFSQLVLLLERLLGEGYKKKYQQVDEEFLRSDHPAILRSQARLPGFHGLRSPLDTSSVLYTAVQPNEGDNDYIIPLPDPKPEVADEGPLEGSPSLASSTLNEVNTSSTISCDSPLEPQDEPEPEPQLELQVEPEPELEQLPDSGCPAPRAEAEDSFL

remaining activity at 1 µM [1, 3]: 94%
remaining activity at 1 µM [2, 3]: 98%
Structure (SMILES): CC(C)(CO)Nc1ccc(C(=O)Nc2cccc(S(=O)(=O)C3CCCC3)c2)c(N2CCC3(CC2)CC3)n1 [AM-0277]

remaining activity at 1 µM [1, 4]: 98%
remaining activity at 1 µM [2, 4]: 81.5%
Structure (SMILES): CC(C)(C)NS(=O)(=O)c1cccc(NC(=O)c2ccc(S(=O)(=O)NC(C)(C)C)cc2N2CCC3(CC2)CC3)c1 [AM-1882]

remaining activity at 1 µM [1, 5]: 97.5%
remaining activity at 1 µM [2, 5]: 81%
Structure (SMILES): C[C@@H]1CN(c2cccc(NC(=O)c3ccc(NS(=O)(=O)CCO)cc3N3CCC4(CC3)CC4)n2)CCO1 [AM-5308]

From publication PMC10824666 (Nature Cancer, 2023)
